The results in this text go back to article PMC6158189, “A pharmacological probe identifies cystathionine β-synthase as a new negative regulator for ferroptosis” (Cell Death & Disease, 2018).

In one assay the test system is HEK293T cells. The experiment in a line: cell viability (CellTiter 96 Aqueous One). The format is cell-based. To be noted: 24 h. As for the experimental part: Fig. 4 CH004 arrests the cell cycle at the S phase. a CH004 reduces the cell viability of HEK293T and HepG2 cells. HEK293T or HepG2 cells were treated with indicated concentrations of CH004 for 24 h before the cell number was analyzed using the CellTiter96® Aqueous One Solution Cell Proliferation Assay (Promega, Materials and Methods). The means at each concentration of one representative experiment are shown as percentages of DMSO (control, 100%). Means ± SDs (n = 3). b Overexpression of hCBS or knock-down of hCBS counteracts the growth inhibition exerted by CH004 in HEK293T cells. Indicated HEK293T stable cell lines were treated with the CH004 or DMSO for 24 h. Then, the cell viability was quantified with the CellTiter 96® Aqueous One Solution Cell Proliferation Assay under the standard protocol (Promega). […] The efficacy for CBS overexpression and knock-down in HEK293T cells was determined by Western blotting using an anti-CBS antibody (3E1, 1:2000; Abnova). c CH004 induces cell death in HEK293T and HepG2 cells. […] HEK293T cells were incubated with indicated compounds for 12 h, and the DNA content was quantified with propidium iodide to analyze the cell cycle distribution by flow cytometry (e). The cell cycle distributions for HEK293T-shNT and HEK293T-shCBS cells were accordingly analyzed and are shown in f. […]

Assay [1] concerns HepG2, HEK293T, Huh7, H22, Panc-28, HCT116 and MDA-MB-231 cells. The experiment in a line: cell proliferation, all tested cell lines. Format: cell-based. Particulars: 24 h; read-out: IC50 range, proliferation of all tested cells. As for the experimental part:
With a bioactive and selective inhibitor of CBS in hand, we examined the effect of CH004 on the proliferation of HepG2 and HEK293T cells as well as hepatocellular carcinoma Huh7 and H22, pancreatic cancer Panc-28, colon cancer HCT116 and breast cancer MDA-MB-231 cells. […] HCT116 was the most affected cell line with an IC50 of 4 μM amongst tested cell lines (Fig. 4a and Supplementary Figure 11). […] To confirm that CH004-mediated inhibitory effects are due to the specific inhibition of hCBS, we generated hCBS-overexpressed (293T-CBS WT) stable cell lines by transducing HEK293T cells with lentivirus carrying hCBS WT genes. […] In supporting the pros of CBS on the proliferation, knock-down of CBS indeed substantially retards cell proliferation in HEK293T cells (Supplementary Figure 12c, d). […] Importantly, CH004 could largely retard the colony formation of HepG2 cells with an IC50 of ~8 μM (Supplementary Figure 12e–g).
To measure cell viability and cytotoxicity, HepG2, HEK293T, Huh-7, H22, Panc-28, HCT116 and MDA-MB-231 cells were seeded at a density of ~ 2 × 10^4 cells per well in 96-well plates (Coring, NY, USA) for one day, followed by incubation with DMSO or various concentrations of tested compound for indicated times. […]

Take `Cn1nc(Cc2ccccc2)nc2c(=O)n(C)c(=O)nc1-2` [CH004, 3-benzyl-1,6-dimethylpyrimido[5,4-e][1,2,4]triazine-5,7(1H,6H)-dione]: the IC50 in the assay on HEK293T cells is around 17 µM; in the assay with HEK293T cells (Homo sapiens, HEK-293T) it was 16.6 ± 5.3 µM; in assay [1], 4 to 25 µM.
